Results as given in patent US12054562B2, “Cell-permeable inhibitory agent and methods of use thereof in treatment of cognitive and mood disorders” (priority 2015, dated 2024).

Legend:
[1] = test system: etomidate-induced memory deficits in mice; assay: Novel object recognition task, treatment paradigm; format: in vivo, mouse; settings: peptide given the day after etomidate, 4 hrs before behavioral testing
Procedure: In the present study, mice were handled two times a day, 5 min each before start of behavioral experiments. Object recognition was assessed in a circle opaque chamber with the diameter of 38.5 cm in a regular lit room. Each mouse was habituated to the chamber for 5 min since day 3. During the training phase, the mouse was allowed to explore two identical objects for 5 min. The mouse was then returned to its home cage for a retention period of 1 h. The mouse was reintroduced to the training context and presented with one familiar object and one novel object for 5 min. Movement and interaction with the objects was recorded with a video camera that was mounted above the chamber. The exploratory behavior and mouse activity was analyzed blindly by a person with a good training and the software EthoVision, XT v11.5 provided by the Noldus Information Tech Inc., (Leesburg VA, USA). Exploratory behavior was defined as sniffing, licking, or touching the object while facing the object. Memory was assessed by measuring the novelty preference ratio (i.e., the ratio of time spent exploring the novel object to the time spent exploring both objects). […] Total interaction time with both objects was compared between groups to determine whether the treatments affected locomotor activity or exploration during the testing phase. […]

[2] = target: T1, gephyrin and α5 subunit interaction (Mus musculus, UniProt Q8BUV3); assay: Co-IP and WB of gephyrin and α5 subunit interaction; format: binding; settings: immunoprecipitates from Example 1, hippocampal tissue
T1 construct: from tissue; host or cells: hippocampus of adult mice
T1 sequence (Q8BUV3 1-769): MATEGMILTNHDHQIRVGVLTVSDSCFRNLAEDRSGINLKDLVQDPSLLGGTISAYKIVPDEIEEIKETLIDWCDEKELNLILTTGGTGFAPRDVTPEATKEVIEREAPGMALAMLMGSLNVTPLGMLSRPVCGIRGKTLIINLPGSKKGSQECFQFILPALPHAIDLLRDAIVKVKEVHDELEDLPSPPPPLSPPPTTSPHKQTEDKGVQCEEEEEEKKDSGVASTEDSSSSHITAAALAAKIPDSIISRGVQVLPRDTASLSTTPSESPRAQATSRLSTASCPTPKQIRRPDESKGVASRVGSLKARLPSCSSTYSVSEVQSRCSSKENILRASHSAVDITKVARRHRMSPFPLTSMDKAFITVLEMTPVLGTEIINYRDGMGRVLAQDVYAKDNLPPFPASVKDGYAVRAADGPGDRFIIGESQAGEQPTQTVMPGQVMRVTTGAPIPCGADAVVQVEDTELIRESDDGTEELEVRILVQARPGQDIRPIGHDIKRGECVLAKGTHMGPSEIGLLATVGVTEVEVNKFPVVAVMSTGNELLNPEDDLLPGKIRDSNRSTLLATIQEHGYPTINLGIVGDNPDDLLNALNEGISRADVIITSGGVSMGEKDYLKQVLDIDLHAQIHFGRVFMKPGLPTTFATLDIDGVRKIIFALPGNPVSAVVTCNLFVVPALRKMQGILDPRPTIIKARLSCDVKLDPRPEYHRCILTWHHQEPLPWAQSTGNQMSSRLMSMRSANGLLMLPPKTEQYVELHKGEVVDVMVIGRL
Procedure: For the immunoprecipitation experiment, the tissue lysate containing […] protein (in 250 μl) was incubated with 20 μM (20 μl) of either the inhibitory peptide (SEQ ID NO:1) or scramble peptide (SEQ ID NO:5) without TAT sequence. One hour following the incubation, the antibodies (2-4 μg) against either α5 subunit (cat #sc—31417, Santa Cruz Biotechnology, Inc., 10410 Finnell St. Dallas, TX, 75220, USA) or radixin (cat #ab91312, Abcam Inc., c/o 913860, PO Box 4090 Stn A, Toronto, ON M5W 0E9), or 4 μg of non-specific IgG protein (cat #sc—2028, Santa Cruz Biotechnology, Inc., 10410 Finnell St. Dallas, TX, 75220, USA), were added to the lysate solution. After gently shaking overnight at 4° C., the immune complexes were precipitated with protein A/G plus-agarose beads (Santa Cruz Biotechnology, Inc., 10410 Finnell St. Dallas, TX, 75220, USA). Forty microliters of the A/G plus agarose beads were added to the immune complex solution and shaking gently for 2 h at 4° C. After spin with the microcentrifuge (Eppendorf Mini-Spin Plus, Marshall Scientific, 424 Route 125, Brentwood, NH 03833, USA), the immunoprecipitates were washed four times with ice-cold PBS, then resuspended in 2× Laemmli sample loading buffer containing 5% […], and boiled for 5 min. These samples were subjected to Western blot experiment. […]

With NYFTKRGWAWDGKKAL [inhibitory peptide] the “memory deficits in etomidate-treated mice (NOR, treatment)” value [1] was “reversed” and the “gephyrin and α5 subunit interaction” value [2] was “did not interfere”.
